Experimental findings from patent US10765662B2, “Mono- or di-substituted indole derivatives as dengue viral replication inhibitors” (Janssen Pharmaceuticals, Inc., priority 2015, dated 2020) are described below.

In data set [1] the test system is DENV-2 16681 strain labeled with enhanced green fluorescent protein. Kind of data set: DENV-2 antiviral assay (eGFP fluorescence read-out in Vero cells). The format is cell-based, Dengue virus. The settings on record: DENV-2 16681 eGFP, MOI 0.5, 3 days. As to the method:
The antiviral activity of all the compounds of the invention was tested against the DENV-2 16681 strain which was labeled with enhanced green fluorescent protein (eGPF). The culture medium consists of minimal essential medium supplemented with 2% of heat-inactivated fetal calf serum, 0.04% gentamycin (50 mg/mL) and 2 mM of L-glutamine. Vero cells, obtained from ECACC, were suspended in culture medium and 25 μL was added to 384-well plates (2500 cells/well), which already contain the antiviral compounds. Typically, these plates contain a 5-fold serial dilution of 9 dilution steps of the test compound at 200 times the final concentration in 100% DMSO (200 nL). […] Finally, each plate contains wells which are assigned as virus controls (containing cells and virus in the absence of compound), cell controls (containing cells in the absence of virus and compound) and medium controls (containing medium in the absence of cells, virus and compounds). To the wells assigned as medium control, 25 μL of culture medium was added instead of Vero cells. Once the cells were added to the plates, the plates were incubated for 30 minutes at room temperature to allow the cells to distribute evenly within the wells. Next, the plates were incubated in a fully humidified incubator (37° C., 5% CO2) until the next day. Then, DENV-2 strain 16681, labeled with eGFP, was added at a multiplicity of infection (MOI) of 0.5. Therefore, 15 μL of virus suspension was added to all the wells containing test compound and to the wells assigned as virus control. In parallel, 15 μL of culture medium was added to the medium and cell controls. Next, the plates were incubated for 3 days in a fully humidified incubator (37° C., 5% CO2). At the day of the read out, the eGFP fluorescence was measured using an automated fluorescence microscope at 488 nm (blue laser). Using an in-house LIMS system, inhibition dose response curves for each compound were calculated and the half maximal effective concentration (EC50) was determined. Therefore, the percent inhibition (I) for every test concentration is calculated using the following formula: I=100*([…])/(SVC−SCC); ST, SCC and SVC are the amount of eGFP signal in the test compound, cell control and virus control wells, respectively. The EC50 represents the concentration of a compound at which the virus replication is inhibited with 50%, as measured by a 50% reduction of the eGFP fluorescent intensity compared to the virus control. The EC50 is calculated using linear interpolation (Table 1).

A short description of another data set: in vitro. The format is cell-based. The settings on record: African green monkey, CC50. As for the experimental part:
(§1) In parallel, the toxicity of the compounds was assessed on the same plates. Once the read-out for the eGFP signal was done, 40 μL of ATPlite, a cell viability stain, was added to all wells of the 384-well plates. ATP is present in all metabolically active cells and the concentration declines very rapidly when the cells undergo necrosis or apoptosis. The ATPLite assay system is based on the production of light caused by the reaction of ATP with added luciferase and D-luciferin. The plates were incubated for 10 minutes at room temperature. Next, the plates were measured on a ViewLux. The half maximal cytotoxic concentration (CC50) was also determined, defined as the concentration required to reduce the luminescent signal by 50% compared to that of the cell control wells. Finally, the selectivity index (SI) was determined for the compounds, which was calculated as followed: SI=CC50/EC50.

In another data set the test system is Vero cells. Put plainly: in vitro. Type of data set: cell-based. The settings on record: African green monkey. As to the method: as §1
[2] abbreviates: Dengue virus, DENV2, Vero, 72 h.

What is called EC50 is the concentration needed to bring the measured effect to its halfway point. A word on the CC50: it is the concentration giving 50% cytotoxicity. As to `COc1cc(NC(C(=O)c2c[nH]c3c(C)c(Cl)ccc23)c2ccc(Cl)cc2OCCO)cc(S(C)(=O)=O)c1` (single isomer, unassigned) [Compound 5A, 2-(4-chloro-2-(2-hydroxyethoxy)phenyl)-1-(6-chloro-7-methyl-1H-indol-3-yl)-2-((3-methoxy-5-(methylsulfonyl)phenyl)amino)ethanone], in data set [1], the EC50 was 8.4 nM. Besides, the CC50 in the data set “in vitro” turned out to be 5000 nM.

In the case of `COc1cc(NC(C(=O)c2c[nH]c3c(C)c(F)ccc23)c2ccc(Cl)cc2OCCO)cc(S(C)(=O)=O)c1` (single isomer, unassigned) [Compound 4B, 2-(4-chloro-2-(2-hydroxyethoxy)phenyl)-1-(6-fluoro-7-methyl-1H-indol-3-yl)-2-((3-methoxy-5-(methylsulfonyl)phenyl)amino)ethanone], the EC50 in data set [1] is 11 nM. This compound gave a CC50 with Vero cells of 5.7 µM.

For `COc1cc(NC(C(=O)c2c[nH]c3cc(F)ccc23)c2ccc(Cl)cc2OCCO)cc(S(C)(=O)=O)c1` (racemic) [Compound 1, 2-(4-chloro-2-(2-hydroxyethoxy)phenyl)-1-(6-fluoro-1H-indol-3-yl)-2-((3-methoxy-5-(methylsulfonyl)phenyl)amino)ethanone], in data set [1] (setting [2]), the EC50 was 0.43 nM. The same compound registered a cytotoxic concentration (CC50) in the data set “in vitro” of 5100 nM.

Consider `COc1cc(NC(C(=O)c2c[nH]c3ccc(OC(F)(F)F)cc23)c2ccc(Cl)cc2OCCO)cc(S(C)(=O)=O)c1` (racemic) [Compound 10, 2-(4-chloro-2-(2-hydroxyethoxy)phenyl)-2-((3-methoxy-5-(methylsulfonyl)phenyl)amino)-1-(5-(trifluoromethoxy)-1H-indol-3-yl)ethanone], for which the concentration giving a half-maximal response (EC50) in data set [1] (setting [2]) worked out at 0.1 nM. The compound further gave a 50% cytotoxic concentration (CC50) in the data set “in vitro” of over 2400 nM.

Consider `COc1cc(NC(C(=O)c2c[nH]c3ccc(OC(F)(F)F)cc23)c2ccc(Cl)cc2OCCO)cc(S(C)(=O)=O)c1` (single isomer, unassigned) [Compound 10A, 2-(4-chloro-2-(2-hydroxyethoxy)phenyl)-2-((3-methoxy-5-(methylsulfonyl)phenyl)amino)-1-(5-(trifluoromethoxy)-1H-indol-3-yl)ethanone], for which the EC50 in data set [1] was found to be 2.9 nM. Also, the CC50 in the data set “in vitro” was determined as 2300 nM.

For `COc1cc(NC(C(=O)c2c[nH]c3cc(F)c(F)cc23)c2ccc(Cl)cc2OCCO)cc(S(C)(=O)=O)c1` (single isomer, unassigned) [Compound 7B, 2-(4-chloro-2-(2-hydroxyethoxy)phenyl)-1-(5,6-difluoro-1H-indol-3-yl)-2-((3-methoxy-5-(methylsulfonyl)phenyl)amino)ethanone], the EC50 in data set [1] came to 5 nM. Further, in the data set with Vero cells, the CC50 came out at 9.2 µM.

`COc1cc(NC(C(=O)c2c[nH]c3cc(F)c(F)cc23)c2ccc(Cl)cc2OCCO)cc(S(C)(=O)=O)c1` (racemic) [Compound 7, 2-(4-chloro-2-(2-hydroxyethoxy)phenyl)-1-(5,6-difluoro-1H-indol-3-yl)-2-((3-methoxy-5-(methylsulfonyl)phenyl)amino)ethanone]: the concentration giving a half-maximal response (EC50) in data set [1] (setting [2]) was 0.26 nM. In the data set “in vitro”, this compound registered a CC50 of 2800 nM.

`COc1cc(NC(C(=O)c2c[nH]c3cc(OC)c(C)cc23)c2ccc(Cl)cc2OCCO)cc(S(C)(=O)=O)c1` (single isomer, unassigned) [Compound 6B, 2-(4-chloro-2-(2-hydroxyethoxy)phenyl)-2-((3-methoxy-5-(methylsulfonyl)phenyl)amino)-1-(6-methoxy-5-methyl-1H-indol-3-yl)ethanone]: in data set [1], the EC50 was 36 nM. In the data set on Vero cells, the CC50 is 5.9 µM.

For the compound `COc1cc(NC(C(=O)c2c[nH]c3ccc(C(F)(F)F)cc23)c2ccc(Cl)cc2OCCO)cc(S(C)(=O)=O)c1` (single isomer, unassigned) [Compound 9A, 2-(4-chloro-2-(2-hydroxyethoxy)phenyl)-2-((3-methoxy-5-(methylsulfonyl)phenyl)amino)-1-(5-(trifluoromethyl)-1H-indol-3-yl)ethanone], the half-maximal effective concentration (EC50) in data set [1] was determined as 1.9 nM. This compound also returned a 50% cytotoxic concentration (CC50) in the data set with Vero cells of 11 µM.

On to `COc1cc(NC(C(=O)c2c[nH]c3cc(OC)c(C)cc23)c2ccc(Cl)cc2OCCO)cc(S(C)(=O)=O)c1` (racemic) [Compound 6, 2-(4-chloro-2-(2-hydroxyethoxy)phenyl)-2-((3-methoxy-5-(methylsulfonyl)phenyl)amino)-1-(6-methoxy-5-methyl-1H-indol-3-yl)ethanone], for which the 50% effective concentration (EC50) in data set [1] (setting [2]) amounted to 0.37 nM. Moreover, in the data set “in vitro”, the midpoint of cytotoxicity, the CC50, lay at 4700 nM.

Consider `COc1cc(NC(C(=O)c2c[nH]c3cc(F)c(C)cc23)c2ccc(Cl)cc2OCCO)cc(S(C)(=O)=O)c1` (racemic) [Compound 8, 2-(4-chloro-2-(2-hydroxyethoxy)phenyl)-1-(6-fluoro-5-methyl-1H-indol-3-yl)-2-((3-methoxy-5-(methylsulfonyl)phenyl)amino)ethanone], for which, in data set [1] (setting [2]), the concentration giving a half-maximal response (EC50) amounted to 0.27 nM. The midpoint of cytotoxicity in “in vitro”, the CC50, lay at 2800 nM.

Regarding `COc1cc(NC(C(=O)c2c[nH]c3c(C)cc(OC(F)(F)F)cc23)c2ccc(Cl)cc2OCCO)cc(S(C)(=O)=O)c1` (single isomer, unassigned) [Compound 12A, 2-(4-chloro-2-(2-hydroxyethoxy)phenyl)-2-((3-methoxy-5-(methylsulfonyl)phenyl)amino)-1-(7-methyl-5-(trifluoromethoxy)-1H-indol-3-yl)ethanone], in data set [1], the EC50 was determined as 5 nM. The compound further registered a CC50 in the data set “in vitro” of 2500 nM.

In the case of `COc1cc(NC(C(=O)c2c[nH]c3cc(F)c(C)cc23)c2ccc(Cl)cc2OCCO)cc(S(C)(=O)=O)c1` (single isomer, unassigned) [Compound 8B, 2-(4-chloro-2-(2-hydroxyethoxy)phenyl)-1-(6-fluoro-5-methyl-1H-indol-3-yl)-2-((3-methoxy-5-(methylsulfonyl)phenyl)amino)ethanone], in data set [1], the concentration giving a half-maximal response (EC50) worked out at 1.7 nM. This compound had a CC50 in the data set with Vero cells of over 2.4 µM.

Consider `COc1cc(NC(C(=O)c2c[nH]c3cc(Cl)ccc23)c2ccc(Cl)cc2OCCO)cc(S(C)(=O)=O)c1` (single isomer, unassigned) [Compound 2B, 1-(6-chloro-1H-indol-3-yl)-2-(4-chloro-2-(2-hydroxyethoxy)phenyl)-2-((3-methoxy-5-(methylsulfonyl)phenyl)amino)ethanone], for which the EC50 in data set [1] worked out at 4.9 nM. The compound also came in with a cytotoxic concentration (CC50) in the data set with Vero cells of 11 µM.

In the case of `COc1cc(NC(C(=O)c2c[nH]c3cc(OC)c(OC(F)(F)F)cc23)c2ccc(Cl)cc2OCCO)cc(S(C)(=O)=O)c1` (single isomer, unassigned) [Compound 11A, 2-(4-chloro-2-(2-hydroxyethoxy)phenyl)-2-((3-methoxy-5-(methylsulfonyl)phenyl)amino)-1-(6-methoxy-5-(trifluoromethoxy)-1H-indol-3-yl)ethanone], in data set [1], the EC50 worked out at 1.5 nM. This compound also displayed a half-maximal cytotoxic concentration (CC50) in “in vitro” of over 2300 nM.

`COc1cc(NC(C(=O)c2c[nH]c3c(C)cc(OC(F)(F)F)cc23)c2ccc(Cl)cc2OCCO)cc(S(C)(=O)=O)c1` (racemic) [Compound 12, 2-(4-chloro-2-(2-hydroxyethoxy)phenyl)-2-((3-methoxy-5-(methylsulfonyl)phenyl)amino)-1-(7-methyl-5-(trifluoromethoxy)-1H-indol-3-yl)ethanone]: the concentration giving a half-maximal response (EC50) in data set [1] (setting [2]) came to 0.1 nM. In the data set “in vitro”, this compound yielded a cytotoxic concentration (CC50) of 2500 nM.

On to `COc1cc(NC(C(=O)c2c[nH]c3cc(F)ccc23)c2ccc(Cl)cc2OCCO)cc(S(C)(=O)=O)c1` (single isomer, unassigned) [Compound 1B, 2-(4-chloro-2-(2-hydroxyethoxy)phenyl)-1-(6-fluoro-1H-indol-3-yl)-2-((3-methoxy-5-(methylsulfonyl)phenyl)amino)ethanone], for which, in data set [1], the EC50 is 3.5 nM. In the data set with Vero cells, the CC50 is 8.4 µM.
